According to article PMC4604475 (Scientific Reports, 2015):

Experiments:
[1] = Stability (hydrolysis kinetics) in rat whole blood; assay type: in vitro ADME; details: 37 °C; for kIII, pseudo first-order rate constant, trisubstituted to disubstituted: value ± standard error of fit; for half-life at 5 μM: whole blood (heparinised), 5 μM compound
Source text: (§1) There are two possible isomeric disubstituted intermediates and, likewise, two monosubstituted intermediates. By HPLC-UV and HPLC-MS analyses in most cases we were able to detect and separate all of them. However, to simplify the kinetic analysis of the data we considered each pair of isomeric intermediates, resulting from the first and second hydrolysis steps, as a single species, i.e. the two disubstituted and the two monosubstituted intermediates were handled as species II and I, respectively (Fig. 3). Fitting of the experimental data was then performed considering consecutive pseudo first order reactions and using a set of equations analogous to those described by Kozerski et al.[55]
Rats were anesthetised and blood was withdrawn from the jugular vein, and transferred into tubes containing heparin. Blood samples (1 mL) were spiked with 5 μM compound (dilution from a 5 mM stock solution in DMSO), and incubated at 37 °C for 4 hours (the maximum period allowed by blood stability). Aliquots were taken after 10 min, 30 min, 1 h, 2 h and 4 h and treated as described below (blood sample treatment and analysis). Cleared blood samples were finally subjected to HPLC-UV analysis.
(§2) Before starting the treatment, 4,4′-dihydroxybiphenyl was added as internal standard to a carefully measured blood volume (25 μM final concentration). 0.1 vol of 0.6 M TEA (pH 8.0) and 4 vol of MeOH were then added to the blood samples, which were then sonicated (2 min) and centrifuged (12,000 g, 7 min, 4 °C). The supernatant was finally collected and stored at −20 °C. Before analysis, MeOH was evaporated off at room temperature using a Univapo 150H (UniEquip) vacuum concentrator centrifuge, and up to 40 μL of ACN were added to precipitate residual proteins. After centrifugation (12,000 g, 5 min, 4 °C), cleared samples were directly subjected to HPLC-UV analysis. Metabolites and hydrolysis products were identified by comparison of chromatographic retention time with true samples or by HPLC/ESI-MS analysis.

[2] = Blood pharmacokinetics after oral (intragastric) administration to rats; assay type: in vivo; details: rat, oral 88 μmol/kg
Description: Derivatives 2–5 were then tested for their in vivo absorption and metabolism by performing pharmacokinetic studies after oral administration to rats. Each compound was administered as a single intragastric bolus, in an equimolar dose/kg body weight (88 μmol/kg). Blood samples were taken at different time points over a 24 h period, treated and analyzed as described in the Materials and Methods section. Each experiment was replicated at least 3 times.
as §2
Internal standard recovery from the treatment used to extract resveratrol-AA derivatives was 91.8 ± 10.7%. The recovery of 3, expressed as ratio to the recovery of internal standard, was 0.633 ± 0.088. […] Knowledge/assumption of these ratios allowed us to determine the unknown amount of analyte in a blood sample by measuring the recovery of internal standard.
Since sample treatment includes an evaporation/concentration step, LOD and LOQ were determined relatively to the analytical part of the method (HPLC/UV analysis).
Derivatives 2–5 were administered to overnight-fasted male Wistar rats from the facility of the Department of Biomedical Sciences, University of Padova, as a single intragastric dose (88 μmol/Kg, dissolved in 250 μl DMSO). Blood samples were obtained by the tail bleeding technique: before drug administration, rats were anesthetised with isoflurane and the tip of the tail was cut off; blood samples (80–100 μL each) were then taken from the tail tip at different time points after drug administration. Blood was collected in heparinised tubes, kept in ice and treated as described above within 10 min.

[3] = Hydrolysis kinetics in aqueous PBS 0.1 M, pH 6.8, 37 °C (intestinal conditions); assay type: physicochemical; details: for half-life at 5 μM: 0.1 M PBS buffer, 5 μM compound; for 10^2 * kII, pseudo first-order rate constant, disubstituted to monosubstituted / 10^2 * kIII, pseudo first-order rate constant, trisubstituted to disubstituted: value ± standard error of fit
Source text: as §1
The stability of all new compounds was tested in aqueous media imitating gastric (0.1 N HCl, NormaFix) and intestinal (0.1 M PBS buffer, pH 6.8) conditions. A 5 μM solution of the compound was prepared from a 5 mM stock solution in DMSO, and incubated at 37 °C for 24 hours; samples withdrawn at different times were analysed by HPLC-UV. Hydrolysis products were identified by HPLC/ESI-MS analysis of selected samples. Non-linear curve fitting was performed using Origin 8.0 data analysis software, using the equations described in[55][61].

[4] = oral administration of an equimolar amount of resveratrol itself; cited from earlier work

Structure (SMILES) | kIII, pseudo first-order rate constant, trisubstituted to disubstituted [1] | half-life at 5 μM [1] | appearance in blood of resveratrol, products of partial hydrolysis (II and I) or any metabolites [2] | half-life at 5 μM [3] | 10^2 * kII, pseudo first-order rate constant, disubstituted to monosubstituted [3] | 10^2 * kIII, pseudo first-order rate constant, trisubstituted to disubstituted [3] | time of peak blood concentration of resveratrol [4] | level of disubstituted hydrolysis products (II) in blood [2] | sulfated or glucuronidated species in the bloodstream [2] | concentration of prodrug in blood ([2]; about one hour after administration, remained around this level for several hours)
O=C(NC(Cc1ccccc1)C(=O)O)Oc1ccc(/C=C/c2cc(OC(=O)NC(Cc3ccccc3)C(=O)O)cc(OC(=O)NC(Cc3ccccc3)C(=O)O)c2)cc1 (centres unmarked) [Derivative 5, (E)-2,2′-((((5-(4-(((1-carboxy-2-phenylethyl)carbamoyl)oxy)styryl)-1,3-phenylene)bis(oxy))bis(carbonyl))bis(azanediyl))bis(3-phenylpropanoic acid)] | 1.86 ± 0.06 h⁻¹ | 0.3 h | did not result in the appearance in blood samples of detectable amounts | 17 h | 1.36 ± 0.04 h^−1 | 4.25 ± 0.02 h^−1 |  |  |  | 
CC(O)C(NC(=O)Oc1ccc(/C=C/c2cc(OC(=O)NC(C(=O)O)C(C)O)cc(OC(=O)NC(C(=O)O)C(C)O)c2)cc1)C(=O)O (centres unmarked) [Derivative 4, (E)-2,2′-((((5-(4-(((1-carboxy-2-hydroxypropyl)carbamoyl)oxy)styryl)-1,3-phenylene)bis(oxy))bis(carbonyl))bis(azanediyl))bis(3-hydroxybutanoic acid)] | 3.9 ± 0.2 h⁻¹ | 0.17 h | did not result in the appearance in blood samples of detectable amounts | 15 h | 1.4 ± 0.1 h^−1 | 5.30 ± 0.08 h^−1 |  |  |  | 
Oc1ccc(/C=C/c2cc(O)cc(O)c2)cc1 [resveratrol, 3,5, 4′-trihydroxy-trans-stilbene] |  |  |  |  |  |  | about 10 minutes |  |  | 
CC(C)CC(NC(=O)Oc1ccc(/C=C/c2cc(OC(=O)NC(CC(C)C)C(=O)O)cc(OC(=O)NC(CC(C)C)C(=O)O)c2)cc1)C(=O)O (centres unmarked) [Derivative 2, (E)-2,2′-((((5-(4-(((1-carboxy-3-methylbutyl)carbamoyl)oxy)styryl)-1,3-phenylene)bis(oxy))bis(carbonyl))bis(azanediyl))bis(4-methylpentanoic acid)] | 0.57 ± 0.06 h⁻¹ | 1 h |  | > 24 h | 0.9 ± 0.2 h^−1 | 1.98 ± 0.03 h^−1 |  |  |  | 
CCC(C)C(NC(=O)Oc1ccc(/C=C/c2cc(OC(=O)NC(C(=O)O)C(C)CC)cc(OC(=O)NC(C(=O)O)C(C)CC)c2)cc1)C(=O)O (centres unmarked) [Derivative 3, (E)-2,2′-((((5-(4-(((1-carboxy-2-methylbutyl)carbamoyl)oxy)styryl)-1,3-phenylene)bis(oxy))bis(carbonyl))bis(azanediyl))bis(3-methylpentanoic acid)] | 0.63 ± 0.04 h⁻¹ | 1 h |  | > 24 h | 0.4 ± 0.4 h^−1 | 2.21 ± 0.02 h^−1 |  | about as high as that of their precursor | neither sulfated nor glucuronidated species appeared in the bloodstream | higher than 0.5 μM
